Assay results taken from paper PMC7248311, “Bisphenol A Diglycidyl Ether (BADGE) and Bisphenol Analogs, but Not Bisphenol A (BPA), Activate the CatSper Ca^2+ Channel in Human Sperm” (Frontiers in Endocrinology, 2020).
“Also recorded” adds a separate entry of the source. Read-outs that look alike come from different tables or passages of the source.

Tests used:
[1] = tested on: progesterone-induced Ca^2+ signals in human sperm cells; assay: Inhibition of Ca^2+ signals induced by 100 nM progesterone after 5 min pre-incubation with bisphenols; type: cell-based; conditions: for Dose-dependent inhibition of progesterone-induced Ca^2+ signals (in words): 100 nM progesterone, 5 min pre-incubation; for IC50: Homo sapiens, Sperm, read-out: IC50, μM Mean
Procedure: (§1) Changes in the free intracellular Ca^2+ concentration [Ca^2+]i in human sperm cells were measured in 384 multi-well-plates in a fluorescence plate reader (Fluostar Omega, BMG Labtech, Germany) at 30°C as described in Rehfeld et al. ([41]). Briefly, sperm cells were incubated with the fluorescent Ca^2+ indicator Fluo-4, AM (10 μM) for 45 min at 37°C. […] Fluorescence was recorded before and after addition of 25 μL bisphenol solutions, negative control (buffer with vehicle), positive control (progesterone, 5 μM final concentration) manually with an electronic multichannel pipette to duplicate wells. […] For the inhibition studies mean basal fluorescence (F0) was defined as the last 5 cycles before addition of 100 nM progesterone.
We compared the amplitude of the Ca^2+ signals induced by 100 nM of progesterone in human sperm cells after 5 min of pre-incubation with serially diluted doses of the bisphenols or a negative buffer control.

human sperm cells [2] = assay: Ca^2+ fluorimetric assay: Ca^2+ signals ([Ca^2+]i) induced in human sperm cells; type: cell-based; conditions: for Induction of Ca^2+ signals in human sperm cells (in words): 10 μM; for EC50 / activation at 10 µM: Homo sapiens, Sperm; for EC50: read-out: EC50, μM Mean; for activation at 10 µM: read-out: Mean relative peak Ca^2+ signal at 10 μM (in %) (n = 3); for EC05, μM Mean: lowest effective dose from dose response of induced Ca^2+ signals
Procedure: as §1
The bisphenols were screened at a concentration of 10 μM, along a positive control (progesterone, 5 μM), and negative control (HTF^+ with vehicle). Changes in [Ca^2+]i were recorded for 4 min after addition of the chemicals and controls. We calculated the relative peak Ca^2+ signal in % induced by the bisphenols, by dividing the peak Ca^2+ signal with that of the paired positive control, in order to compare data from the different experiments.

[3] = tested on: G protein-coupled estrogen receptor (GPER); parameters: method as in PMID 28858478; conditions: low doses ref 46; cited from earlier work
human sperm cells [4] = assay: Sperm penetration into a viscous medium (modified Kremer's test, methylcellulose); type: cell-based; conditions: 10 μM, 60 min, counted at 2 cm, vs negative control
Procedure: Assessment of sperm penetration was done using sperm penetration tests with 4,000 cP methylcellulose (1% w/v) as an artificial viscous medium as described in Alasmari et al. ([43]). The viscous methylcellulose (1% w/v) medium was prepared in HTF^+ by adding 10 mg methylcellulose per mL HTF^+ and mixing it by rotation overnight at RT. The viscous methylcellulose (1% w/v) medium was introduced into glass capillary tubes [borosilicate microslides (VitroTubes) 0.20 mm × 2.0 mm × 10 cm (VitroCom, USA)] by capillary forces, by placing the glass tubes vertically in a 1.5 mL microfuge tube with 750 μL methylcellulose (1% w/v) for 15min. Care was taken to prevent air bubbles from entering the glass tubes. The end of the glass tube that was placed in the microfuge tube was sealed with wax (Hounisens laboratorieudstyr A/S, Denmark). […] The number of sperm cells were counted at 2 cm distance from the opening of the tube, with two fields in each of four planes counted. Throughout the study, all samples were counted by the same observer. Only experiments with a positive increment in cell density at 2 cm for the positive control compared to the negative control and with more than 40 sperm cells counted at 2 cm for the positive control were used for the analysis.

[5] = tested on: capacitated human sperm cells; assay: Image cytometry-based acrosome reaction assay; type: cell-based; conditions: 10 μM, 30 min, vs negative control
Procedure: The amount of live acrosome reacted sperm cells was measured using an image cytometry-based acrosome reaction assay, as described in Rehfeld et al. ([41]). Briefly, capacitated sperm cells (10 × 10^6/ml) were divided into equal aliquots and mixed thoroughly with a staining solution containing 5 μg/mL FITC-PSA, 0.5 μg/mL PI, and 10 μg/mL Hoechst in HTF^+. Bisphenols (10 μM) were added to the aliquots of stained capacitated sperm cells together with the positive controls, ionomycin (10 μM), and progesterone (10 μM). As a negative control, HTF^+ with 0.2% DMSO was used. After addition of bisphenols and controls the samples were mixed well and placed on a gentle mixing heating plate at 37°C. After 30 min of incubation, the aliquots were mixed thoroughly by pipetting and a 50 μL sample was drawn and added to a 100 μL aliquot of an immobilizing solution containing 0.6 M NaHCO3 and 0.37% (v/v) formaldehyde in distilled water. This solution was mixed well by pipetting, immediately loaded in an A2 slide (ChemoMetec A/S, Allerød, Denmark) and assessed in a NC-3000 image cytometer (ChemoMetec A/S, Allerød, Denmark). The following protocol was applied: 2-color flexicyte with Hoechst defining the sperm cells to be analyzed; Ex475-Em560/35: exposure time 3,000 ms, Ex530-Em675/75: exposure time 500 ms, with a minimum of 5,000 analyzed cells (positive for Hoechst). […]

CatSper = assay: Induced Ca^2+ signals in absence or presence of CatSper inhibitor RU1968; conditions: RU1968 30 μM; bisphenols 5–50 μM, progesterone 5 μM; n = 3
human sperm [6] = tested on: human sperm; parameters: method as in PMID 27686954; conditions: cited from earlier work
human sperm cells [7] = conditions: cited from earlier work
human sperm [8] = tested on: human sperm; parameters: method as in doi:10.20883/jms.2016.5; conditions: 0.1 nM−1 μM ref 40; cited from earlier work
[9] = tested on: voltage-activated Ca^2+ channels; conditions: cited from earlier work
[10] = bisphenol 10 μM, peak Ca^2+ signal divided by that of progesterone 5 μM in the same experiment
[11] = Ca^2+ signals induced by 100 nM progesterone after pre-incubation, n = 3–5
[12] = dose response of induced Ca^2+ signals, n = 3–7

## CC(C)(c1ccc(OCC2CO2)cc1)c1ccc(OCC2CO2)cc1 (stereo not shown) [BADGE, Bisphenol A diglycidyl ether]
[1]
  Dose-dependent inhibition of progesterone-induced Ca^2+ signals (in words): dose-dependently inhibit
Human sperm cells [2]
  Induction of Ca^2+ signals in human sperm cells (in words): can induce Ca^2+ signals
  EC50: 8.18 µM
  activation at 10 µM: 14.8%
Human sperm cells [2]; n = 3–7
  EC05, μM Mean: 1.82 µM

## O=S(=O)(c1ccc(O)cc1)c1ccc(O)cc1 [BPS, Bisphenol S]
Human sperm cells [2]
  Induction of Ca^2+ signals in human sperm cells (in words): induced no Ca^2+ signals
Human sperm cells [2]; [10]
  activation at 10 µM: 4.41%
[3]
  Induction of Ca^2+ signals in SKBR3 cells via GPER: induce Ca^2+ signals

## CCC(C)(c1ccc(O)cc1)c1ccc(O)cc1 [BPB, Bisphenol B]
[1]
  Dose-dependent inhibition of progesterone-induced Ca^2+ signals (in words): dose-dependently inhibit
[1]; [11]
  IC50: 39.9 µM
Human sperm cells [2]
  Induction of Ca^2+ signals in human sperm cells (in words): can induce Ca^2+ signals
Human sperm cells [2]; [10]
  activation at 10 µM: 11.8%
Human sperm cells [2]; [12]
  EC50: 14.9 µM
Human sperm cells [2]; n = 3–7
  EC05, μM Mean: 2.37 µM
[3]
  Induction of Ca^2+ signals in SKBR3 cells via GPER: induce Ca^2+ signals

## Oc1ccc(C(c2ccc(O)cc2)(C(F)(F)F)C(F)(F)F)cc1 [BPAF, Bisphenol AF]
Human sperm cells [4]
  Numbers of human sperm cells penetrating into a viscous medium: significant increase
[1]
  Dose-dependent inhibition of progesterone-induced Ca^2+ signals (in words): dose-dependently inhibit
  IC50: 12.3 µM
Human sperm cells [2]
  Induction of Ca^2+ signals in human sperm cells (in words): can induce Ca^2+ signals
  EC50: 2.4 µM
  activation at 10 µM: 58%
Human sperm cells [2]; n = 3–7
  EC05, μM Mean: 0.36 µM
[3]
  Induction of Ca^2+ signals in SKBR3 cells via GPER: induce Ca^2+ signals
[5]
  Live acrosome reacted sperm cells: significant increase

## CC(C)c1cc(C(C)(C)c2ccc(O)c(C(C)C)c2)ccc1O [BPG, Bisphenol G]
Human sperm cells [4]
  Numbers of human sperm cells penetrating into a viscous medium: significant increase
[1]
  Dose-dependent inhibition of progesterone-induced Ca^2+ signals (in words): dose-dependently inhibit
[1]; [11]
  IC50: 1.86 µM
Human sperm cells [2]
  Induction of Ca^2+ signals in human sperm cells (in words): can induce Ca^2+ signals
Human sperm cells [2]; [10]
  activation at 10 µM: 109%
Human sperm cells [2]; [12]
  EC50: 1.27 µM
Human sperm cells [2]; n = 3–7
  EC05, μM Mean: 0.18 µM
[5]
  Live acrosome reacted sperm cells: significant increase

## CC(c1ccc(O)cc1)c1ccc(O)cc1 [BPE, Bisphenol E]
Human sperm cells [2]
  Induction of Ca^2+ signals in human sperm cells (in words): induced no Ca^2+ signals
  activation at 10 µM: 5.37%

## Oc1ccc(C(c2ccccc2)(c2ccccc2)c2ccc(O)cc2)cc1 [BPBP, Bisphenol BP]
[1]
  Dose-dependent inhibition of progesterone-induced Ca^2+ signals (in words): all bisphenols, except BPBP, were able to dose dependently inhibit
Human sperm cells [2]
  Induction of Ca^2+ signals in human sperm cells (in words): can induce Ca^2+ signals
Human sperm cells [2]; [10]
  activation at 10 µM: 9.09%
Human sperm cells [2]; [12]
  EC50: 0.79 µM
Human sperm cells [2]; n = 3–7
  EC05, μM Mean: 0.38 µM

## CC(=O)[C@H]1CC[C@H]2[C@@H]3CCC4=CC(=O)CC[C@]4(C)[C@H]3CC[C@]12C [progesterone]
CatSper
  Inhibition of the induced Ca^2+ signal in the presence of RU1968: highly inhibited by RU1968

## Cc1cc(C(C)(C)c2ccc(O)c(C)c2)ccc1O [BPC, Bisphenol C]
[1]
  Dose-dependent inhibition of progesterone-induced Ca^2+ signals (in words): dose-dependently inhibit
[1]; [11]
  IC50: 45.2 µM
Human sperm cells [2]
  Induction of Ca^2+ signals in human sperm cells (in words): can induce Ca^2+ signals
Human sperm cells [2]; [10]
  activation at 10 µM: 21.7%
Human sperm cells [2]; [12]
  EC50: 10.3 µM
Human sperm cells [2]; n = 3–7
  EC05, μM Mean: 0.70 µM

## Oc1ccc(Cc2ccc(O)cc2)cc1 [BPF, Bisphenol F]
Human sperm cells [2]
  Induction of Ca^2+ signals in human sperm cells (in words): induced no Ca^2+ signals
Human sperm cells [2]; [10]
  activation at 10 µM: 5.09%
[3]
  Induction of Ca^2+ signals in SKBR3 cells via GPER: induce Ca^2+ signals

## CC(C)(c1ccc(O)cc1)c1ccc(O)cc1 [BPA, Bisphenol A]
Human sperm [6]
  Dose inducing mitochondrial dysfunction in human sperm: ≥ 300 µM
Human sperm cells [7]; 1 μM ref 40
  Effect on [Ca^2+]i in single human sperm cells: rapid, transient increase
Human sperm cells [7]; 0.1, 1, and 10 μM ref 34
  Effect on [Ca^2+]i in human sperm cells: did not affect
Human sperm cells [2]
  Induction of Ca^2+ signals in human sperm cells (in words): induced no Ca^2+ signals; also recorded: do not induce Ca^2+ signals
Human sperm cells [2]; [10]
  activation at 10 µM: 1.44%
[3]
  Induction of Ca^2+ signals in SKBR3 cells via GPER: induce Ca^2+ signals
Human sperm [8]
  Effect on human sperm motility parameters: could affect human sperm motility parameters
[9]
  Activation of other voltage-activated Ca^2+ channels: activate
  Inhibition of other voltage-activated Ca^2+ channels: inhibit
